This note sets out measurements from patent US6673968B1, “Method of producing n-(4,5-bis-methanesulfonyl-2-methyl-benzoyl)-guanidine, the hydrochloride thereof” (Merck Patent Gesellschaft mit beschränkter Haftung, priority 1999, dated 2004).

Molecules are shown by their SMILES. Several values for one entry are separate records, joined by “and”; a condition that tells them apart may be missing. Equal values may be shown once.

Holding throughout (format): in vivo
Data set [1] can be described thus: absorption from the digestive tract after oral administration (AUCpo/AUCiv), rat. The settings on record: of the orally administered radioactively labelled substance. The text has this:
(§1) The absorption from the digestive tract after oral administration can be calculated by comparison of the concentrations of the administered active ingredient determined in the blood plasma after oral and intravenous administration (dose-standardised AUCpo/AUCiv) [AUC=area under the curve]. […] Bioavailabilities of the hydrochloride hydrate of from 88% to 99% were found in dogs, and 75% and 96% in 2 monkeys. Since the absorption rate is at least equal to or greater than the bioavailability determined, very good absorption has thus also been found in these animal species.

Data set [2] in a line: bioavailability after oral administration (AUCpo/AUCiv), monkeys. The settings on record: 2 monkeys (individual values); oral vs intravenous, dose-standardised AUCpo/AUCiv; hydrochloride hydrate.
From the text: as §1

A short description of data set [3]: bioavailability after oral administration (AUCpo/AUCiv), dogs. The conditions noted are these: dog, plasma, oral vs intravenous, dose-standardised AUCpo/AUCiv, read-out: Bioavailabilities.
From the text: as §1

Regarding `Cc1cc(S(C)(=O)=O)c(S(C)(=O)=O)cc1C(=O)NC(=N)N.Cl.O` [hydrochloride hydrate, N-(4,5-bismethanesulfonyl-2-methylbenzoyl)guanidine, hydrochloride hydrate], the absorption rate in data set [1] came to 98%. Besides, the Bioavailabilities in data set [2] was 75% and 96%. The bioavailability in data set [3] fell in the range of 88 to 99%.
